Measured values from paper PMC4942819 (Scientific Reports, 2016).
pIC50: −log10 of the molar value. ≈ marks a conversion by molar mass, not a printed value. Where “and” joins values, the source holds several entries; their conditions need not be identical. Equal entries are not always repeated. Where two headings read alike, the source gives them in different places.

Key:
[1] = tested on: Mycobacterium tuberculosis Erdman; test: microplate Alamar blue assay (MABA), MIC; type: cell-based
Vero cells = test: cytotoxicity, MTT assay; type: cell-based; conditions: Chlorocebus sabaeus; for IC50: Vero, cytotoxicity, read-out: IC50 Vero
Method: (§1) The compounds were examined for toxicity (IC50) using MTT assay. Briefly, cells (3 ~ 5 × 10^3 cells/well) were seeded in a 96-well plate. After 24 h incubation, the cells were treated with various concentrations of drugs for 24, 48, 72 h, respectively. Columns one and two in the assay plates contained-media +0.1% DMSO for a negative control ,Then, 20 μl of a 5 mg/mL MTT solution was added to each well, and the plates were incubated for an additional 2~4 h at 37 °C. The medium was subsequently discarded, and DMSO 150 μL was added to dissolve the formazan. Oscillate 15 min, the OD 570 was measured using a Spectra MAX M5 microplate spectrophotometer (Molecular Devices, CA, USA), and the IC50 values were calculated.
(§2) Compound MIC was conducted by ShangHai Chempartner Co., Ltd (Shanghai, China) using the microplate Alamar Blue assay (MABA) against Mycobacterium tuberculosis H37Ra (ATCC 25177). Cytotoxicity of tested compounds was assessed on Vero cells.

[2] = tested on: Mycobacterium tuberculosis H37Rv; test: microplate Alamar blue assay (MABA), MIC; type: cell-based; conditions: replicating H37Rv
M. tuberculosis H37Rv = test: MABA checkerboard synergy assay; type: cell-based, Mycobacterium tuberculosis; conditions: for MIC: Mycobacterium tuberculosis, H37RV, 336 h, checkerboard, drug alone, read-out: MIC against H37Rv, MIC alone
XDR-TB clinical isolates = test: microbe, parasite or virus in culture; type: cell-based, Mycobacterium tuberculosis; conditions: for MIC, XDR-TB strain X15 / MIC, XDR-TB strain X17: clinical isolate, Table 2 prints no unit, test range 0.0156 to 64 μg/mL; for MIC: Mycobacterium tuberculosis
[3] = tested on: M. tuberculosis Erdman in J774A.1 cells; test: macrophage assay, intracellular activity; type: cell-based, Mycobacterium tuberculosis
Method: As described previously, J774A.1 cells were grown in 75-cm2 cell culture flasks in 10% FBS in Dulbecco’s modified Eagle’s medium (DMEM) until confluency. The cells were detached using a cell scraper, and then centrifuged at 200 g for 5 min at room temperature. The cells were incubated at 37 °C under 5% CO2 for 16 h after distributing into 24-well plates containing coverslips. M. tuberculosis Erdman (ATCC 35801) were diluted to a final concentration of 1 × 10^5 to 3 × 10^5 CFU/mL with DMEM after thawing and sonicating from frozen cultures. And 500 ul of the dilution was dispensed to each well of a new 24-well plate. Followed by, J774A.1 cells on coverslips were infected by incubation with M. tuberculosis Erdman at 37 °C for 2 h. Coverslips were then washed with HBSS and transferred to new 24-well plates. The Cultures were treated in triplicate with compounds at 0.02 μM containing DMEM and incubated at 37 °C under 5% CO2 for 16 h. At D 0 (for untreated controls) and after 7 days of incubation, macrophage cells were lysed by addition of 200 μL of 0.25% sodium dodecyl sulfate. The plates were incubated at 37 °C for 10 min, and 200 μL of DMEM was added. The lysate was sampled using a microtube and sonicated for 15 s. Then 1:1, 1:10, 1:100, and 1:1,000 dilutions were plated on 7H11 agar plates and CFU counts determined after 2 to 3 weeks of incubation at 37 °C.

J774A.1 cells = test: cytotoxicity, MTT assay; type: cell-based; conditions: Mus musculus, J774.A1
Method: as §1

A549 cells = test: cytotoxicity, MTT assay; type: cell-based; conditions: Homo sapiens
Method: as §1

M. tuberculosis Erdman = test: in vivo acute M.tb Erdman infection mouse model; set-up: species or system Mycobacterium tuberculosis
[4] = tested on: Mycobacterium tuberculosis; set-up: method as in PMID 19299584; conditions: cited from earlier work
[5] = tested on: MDR1-MDCKII cell monolayer; test: bi-directional permeability across MDR1-MDCKII cell monolayer; type: in vitro ADME; conditions: dog, MDCK-MDR1
Method: (§3) The In vitro ADME/T assays were conducted at WuXi AppTec Co. Ltd.(Shanghai). ClogP was calculated with ChemDraw Ultra 14.0. In the study of bi-directional permeability across MDR1-MDCKII cell monolayer, permeability was correlated with the apparent permeability coefficient Papp (cm/s), which was interpreted as follows: Low permeability( Papp ≤ 1.0×10^-6 cm/s), Moderate permeability(1.0×10^-6 < Papp < 5.5×10^-6 cm/s) or High permeability( Papp ≥ 5.5×10^-6 cm/s). ^aaqueous solubility at room temperature.

CYP2C19 = CYP2C19 (Homo sapiens, UniProt P33261); test: CYP inhibition; type: in vitro ADME; conditions: read-out: CYP inhibition IC50, CYP2C19
Method: as §3

CYP2C9 = CYP2C9 (Homo sapiens, UniProt P11712); test: CYP inhibition; type: in vitro ADME; conditions: read-out: CYP inhibition IC50, CYP2C9
Method: as §3

CYP3A4 = CYP3A4 (Homo sapiens, UniProt P08684); test: CYP inhibition; type: in vitro ADME; conditions: read-out: CYP inhibition IC50, CYP3A4
Method: as §3

CYP2D6 = CYP2D6 (Homo sapiens, UniProt P10635); test: CYP inhibition; type: in vitro ADME; conditions: read-out: CYP inhibition IC50, CYP2D6
Method: as §3

Mycobacterium avium = test: microdilution plate assay, MIC; type: cell-based
aqueous solubility = type: physicochemical
Method: as §3

plasma protein binding = type: in vitro ADME; conditions: mouse
Method: as §3

[6] = pharmacokinetic study in SD rats; type: in vivo; conditions: female, rat, 5 mg/kg
Method: All animal experiments have been approved by the Institutional Animal Care and Treatment Committee of Sichuan University in China and were carried out in accordance with the approved guidelines. SPF female SD rats weighing 180–220 g were used in the pharmacokinetic study. The rats were fasted overnight before dosing. Every treatment group contain 3 rats. Rats were dosed with SKLB-TB1001 or BTZ043 suspension at 5 mg/kg (i.v. and p.o.). Compounds were dissolved in 5% DMSO/10% Solutol HS15 in saline for intravenous injection and suspended in 0.5% CMC for oral administration. Blood was collected from the jugular vein of each animal at the following times after administration of drugs: 0.083, 0.25, 0.5, 1, 2, 4, 6, 8 and 24 h after a single i.v. dosing; and 0.25, 0.5, 1, 2, 4, 6, 8 and 24 h after a single oral dosing. All blood samples were centrifuged at 3000 r/min for 10 min to obtain serum which was then stored at −20 °C. 150 μL of the serum was added to 500 μL of acetonitrile and the mixture was centrifuged at 13000 r/min for 10 min to remove protein. The supernatant was dried and dissolve in 100 μL of acetonitrile, the solution was centrifuged at 13000 r/min for 10 min. The supernatant was moved to a sample bottle for HPLC analysis. Total area under the concentration time curve (AUC), the elimination half-time (t1/2), the peak concentration (Cmax) and the time to reach peak concentration (Tmax) of samples were determined directly from the experimental data using WinNonlin V6.2.1.

[7] = tested on: Mycobacterium tuberculosis H37Ra (ATCC 25177); test: microplate Alamar Blue assay (MABA), MIC, H37Ra; type: cell-based
Method: as §2

MDR-TB clinical isolates = test: microbe, parasite or virus in culture; type: cell-based; conditions: Mycobacterium tuberculosis

Sequence of CYP3A4 (P08684 whole entry): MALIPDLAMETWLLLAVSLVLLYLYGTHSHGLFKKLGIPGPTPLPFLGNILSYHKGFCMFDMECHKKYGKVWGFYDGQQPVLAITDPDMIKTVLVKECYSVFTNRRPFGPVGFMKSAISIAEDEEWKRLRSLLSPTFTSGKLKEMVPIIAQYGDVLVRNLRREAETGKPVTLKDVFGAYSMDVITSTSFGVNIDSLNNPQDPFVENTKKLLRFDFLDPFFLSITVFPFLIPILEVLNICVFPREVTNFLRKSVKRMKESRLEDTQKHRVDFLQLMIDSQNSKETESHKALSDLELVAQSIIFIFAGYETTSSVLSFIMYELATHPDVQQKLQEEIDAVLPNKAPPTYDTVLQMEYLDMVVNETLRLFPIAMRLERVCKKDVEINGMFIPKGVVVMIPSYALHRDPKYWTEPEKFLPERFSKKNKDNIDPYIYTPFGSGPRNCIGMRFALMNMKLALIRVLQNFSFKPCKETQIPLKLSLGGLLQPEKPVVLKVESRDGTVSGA
Sequence of CYP2C19 (P33261 whole entry): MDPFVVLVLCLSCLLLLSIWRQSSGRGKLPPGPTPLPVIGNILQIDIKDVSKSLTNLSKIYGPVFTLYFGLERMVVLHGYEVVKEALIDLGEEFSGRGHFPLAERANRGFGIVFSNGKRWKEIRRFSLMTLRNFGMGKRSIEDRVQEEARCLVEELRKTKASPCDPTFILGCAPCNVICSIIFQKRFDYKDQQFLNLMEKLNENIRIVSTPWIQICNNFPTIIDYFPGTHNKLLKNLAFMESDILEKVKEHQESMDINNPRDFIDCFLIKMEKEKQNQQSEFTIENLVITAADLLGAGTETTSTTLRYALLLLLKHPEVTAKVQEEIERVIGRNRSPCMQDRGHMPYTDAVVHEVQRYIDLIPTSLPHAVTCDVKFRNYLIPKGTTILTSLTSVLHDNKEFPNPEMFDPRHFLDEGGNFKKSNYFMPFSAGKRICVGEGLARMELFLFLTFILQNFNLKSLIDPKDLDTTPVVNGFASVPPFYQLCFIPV
Sequence of CYP2C9 (P11712 whole entry): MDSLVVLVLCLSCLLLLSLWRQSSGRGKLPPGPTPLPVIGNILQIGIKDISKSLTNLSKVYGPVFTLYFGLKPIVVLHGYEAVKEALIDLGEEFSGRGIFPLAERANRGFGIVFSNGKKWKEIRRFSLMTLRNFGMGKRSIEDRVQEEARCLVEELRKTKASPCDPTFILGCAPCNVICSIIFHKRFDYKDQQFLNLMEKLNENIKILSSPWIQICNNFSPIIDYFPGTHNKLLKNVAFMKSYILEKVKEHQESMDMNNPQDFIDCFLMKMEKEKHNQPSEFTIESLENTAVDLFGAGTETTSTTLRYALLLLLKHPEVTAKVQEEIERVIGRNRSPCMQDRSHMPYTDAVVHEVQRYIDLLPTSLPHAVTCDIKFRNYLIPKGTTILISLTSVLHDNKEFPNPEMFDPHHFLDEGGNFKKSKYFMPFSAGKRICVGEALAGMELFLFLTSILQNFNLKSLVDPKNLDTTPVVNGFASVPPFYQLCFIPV
Sequence of CYP2D6 (P10635 whole entry): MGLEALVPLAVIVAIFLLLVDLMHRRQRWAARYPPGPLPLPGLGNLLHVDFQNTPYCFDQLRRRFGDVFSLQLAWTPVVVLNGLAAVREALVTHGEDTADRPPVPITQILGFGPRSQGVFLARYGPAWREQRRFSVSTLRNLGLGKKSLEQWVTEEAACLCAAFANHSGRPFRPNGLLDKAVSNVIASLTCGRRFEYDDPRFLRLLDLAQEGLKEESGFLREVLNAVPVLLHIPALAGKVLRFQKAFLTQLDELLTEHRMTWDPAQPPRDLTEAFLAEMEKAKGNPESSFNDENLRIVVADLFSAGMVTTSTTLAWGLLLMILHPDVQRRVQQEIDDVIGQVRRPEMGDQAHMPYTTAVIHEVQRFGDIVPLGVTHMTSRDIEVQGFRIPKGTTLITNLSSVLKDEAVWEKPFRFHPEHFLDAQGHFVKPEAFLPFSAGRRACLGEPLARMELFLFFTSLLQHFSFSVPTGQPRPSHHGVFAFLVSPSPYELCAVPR

With O=c1nc(N2CCN(CC3CCCCC3)CC2)sc2c([N+](=O)[O-])cc(C(F)(F)F)cc12 [PBTZ169] the MIC [1] was no more than 0.05 µg/mL, the IC50 (Vero cells) was greater than 100 µg/mL and the MIC [2] was 0.02 µg/mL (≈ 0.0438 µM).
With CC(=O)NC[C@H]1CN(c2ccc(N3CCOCC3)c(F)c2)C(=O)O1 [LZD, Linezolid] the MIC (M. tuberculosis H37Rv) was 0.145 µg/mL and the “MIC against H37Rv, MIC in combo.” value (M. tuberculosis H37Rv; in combination with TB1001) was 0.1 µg/mL.
In the case of C[C@H]1COc2c(N3CCN(C)CC3)c(F)cc3c(=O)c(C(=O)O)cn1c23 [LVFX, levo-ofloxacin], the “MIC, XDR-TB strain X15” value (XDR-TB clinical isolates) was 4 µg/mL (≈ 11.1 µM) and the “MIC, XDR-TB strain X17” value (XDR-TB clinical isolates) was 32 µg/mL (≈ 88.6 µM).
In the case of C[C@H]1COC2(CCN(c3nc(=O)c4cc(C(F)(F)F)cc([N+](=O)[O-])c4s3)CC2)O1 [BTZ043], the “Log10 CFU, intracellular Mtb Erdman” value ([3]; J774A.1 macrophages, 0.02 μM (Fig. 2 legend: 0.02 μg/mL), 7 days) was 4.70, the “Fold(log) reduction” value ([3]; decrease of log10 CFU between D7 and treatment group, J774A.1, 0.02 μM (Fig. 2 legend: 0.02 μg/mL)) was 2.2 log and 2.15 log and the MIC (M. tuberculosis H37Rv) was 0.011 µg/mL. The “MIC against H37Rv, MIC in combo.” value (M. tuberculosis H37Rv; in combination with RMP) was 0.008 µg/mL, the IC50 (J774A.1 cells) was 32 µg/mL (≈ 74.2 µM) and the IC50 (A549 cells) was 25 µg/mL (≈ 58 µM). For the same compound, the “activity in the acute Mtb Erdman infection mouse model” value (M. tuberculosis Erdman; 150 mg/kg) was “not significantly active”, the “Log10 CFU (SD), bacterial burden in mouse lungs” value (M. tuberculosis Erdman; BALB/c mice, Day-36, 150 mg/kg oral daily from day 10) was 6.31 (5.85) and the MIC [4] was 0.001 µg/mL (≈ 0.00232 µM). The “Permeability (Mean Papp, MDR1) A to B” value [5] was 9.02 10^-6 cm/s, the “Permeability (Mean Papp, MDR1) B to A” value [5] was 7.17 10^-6 cm/s and the “efflux ratio” value [5] was 0.79. It also gave a pIC50 (CYP2C19) of less than 5.00, a pIC50 (CYP2C9) of less than 5.00 and a pIC50 (CYP3A4) of less than 5.00. For the same compound, the pIC50 (CYP2D6) was less than 5.00, the MIC (Mycobacterium avium) was 32 µg/mL (≈ 74.2 µM) and the MIC [1] was less than 0.05 µg/mL. The IC50 (Vero cells) was greater than 100 µg/mL, the pIC50 (Vero cells; cytotoxicity on Vero cells, read-out: IC50) was less than 4.70 and the Solubility (aqueous solubility) was less than 1. It also gave an MIC [2] of 0.02 µg/mL (≈ 0.0464 µM), a fraction unbound (plasma protein binding) of less than 0.01 and a bioavailability ([6]; SD, in vivo) of 29.5%. The AUC ([6]; SD, in vivo, po) was 899 ng·h/mL, the Cmax ([6]; SD, in vivo, po) was 543 ng/mL and the Tmax ([6]; SD, in vivo, po) was 15 min. It also gave a half-life ([6]; plasma, po, SD rats, terminal half-life for elimination) of 73.2 min and an MIC [7] of less than 0.1 µM.
In the case of NC[C@H]1O[C@H](O[C@H]2[C@H](O)[C@@H](O[C@H]3O[C@H](CO)[C@@H](O)[C@H](N)[C@H]3O)[C@H](N)C[C@@H]2N)[C@H](O)[C@@H](O)[C@@H]1O [KM, kanamycin], the “MIC, XDR-TB strain X15” value (XDR-TB clinical isolates) was 64 µg/mL (≈ 132 µM) and the “MIC, XDR-TB strain X17” value (XDR-TB clinical isolates) was 64 µg/mL (≈ 132 µM).
CC[C@@H](CO)NCCN[C@@H](CC)CO [EMB, ethambutol] showed an MIC (XDR-TB clinical isolates; read-out: MIC, XDR-TB strain X15) of 16 µg/mL (≈ 78.3 µM), an MIC (XDR-TB clinical isolates; read-out: MIC, XDR-TB strain X17) of 16 µg/mL (≈ 78.3 µM) and an MIC (MDR-TB clinical isolates; read-out: MIC, MDR-TB strain M3) of 4 µg/mL (≈ 19.6 µM). The MIC (MDR-TB clinical isolates; read-out: MIC, MDR-TB strain M4) was 2 µg/mL (≈ 9.79 µM), the MIC (MDR-TB clinical isolates; read-out: MIC, MDR-TB strain M8) was 4 µg/mL (≈ 19.6 µM) and the MIC (MDR-TB clinical isolates; read-out: MIC, MDR-TB strain M18) was 8 µg/mL (≈ 39.2 µM).
